In patent publication US20240360126A1, “PYRAZOLO[3,4-B]PYRIDINE COMPOUNDS FOR THE TREATMENT OF AUTOIMMUNE DISEASE” (Hoffmann-La Roche Inc., priority 2021, published 2024) one finds IC50 data, which are given here for 11 compounds.

For this assay, the target named is T1, human TLR7 (Homo sapiens, UniProt Q9NYK1).
T1 construct: host or cells: HEK293 (HEK-Blue hTLR7)
T1 sequence (Q9NYK1 27-1049): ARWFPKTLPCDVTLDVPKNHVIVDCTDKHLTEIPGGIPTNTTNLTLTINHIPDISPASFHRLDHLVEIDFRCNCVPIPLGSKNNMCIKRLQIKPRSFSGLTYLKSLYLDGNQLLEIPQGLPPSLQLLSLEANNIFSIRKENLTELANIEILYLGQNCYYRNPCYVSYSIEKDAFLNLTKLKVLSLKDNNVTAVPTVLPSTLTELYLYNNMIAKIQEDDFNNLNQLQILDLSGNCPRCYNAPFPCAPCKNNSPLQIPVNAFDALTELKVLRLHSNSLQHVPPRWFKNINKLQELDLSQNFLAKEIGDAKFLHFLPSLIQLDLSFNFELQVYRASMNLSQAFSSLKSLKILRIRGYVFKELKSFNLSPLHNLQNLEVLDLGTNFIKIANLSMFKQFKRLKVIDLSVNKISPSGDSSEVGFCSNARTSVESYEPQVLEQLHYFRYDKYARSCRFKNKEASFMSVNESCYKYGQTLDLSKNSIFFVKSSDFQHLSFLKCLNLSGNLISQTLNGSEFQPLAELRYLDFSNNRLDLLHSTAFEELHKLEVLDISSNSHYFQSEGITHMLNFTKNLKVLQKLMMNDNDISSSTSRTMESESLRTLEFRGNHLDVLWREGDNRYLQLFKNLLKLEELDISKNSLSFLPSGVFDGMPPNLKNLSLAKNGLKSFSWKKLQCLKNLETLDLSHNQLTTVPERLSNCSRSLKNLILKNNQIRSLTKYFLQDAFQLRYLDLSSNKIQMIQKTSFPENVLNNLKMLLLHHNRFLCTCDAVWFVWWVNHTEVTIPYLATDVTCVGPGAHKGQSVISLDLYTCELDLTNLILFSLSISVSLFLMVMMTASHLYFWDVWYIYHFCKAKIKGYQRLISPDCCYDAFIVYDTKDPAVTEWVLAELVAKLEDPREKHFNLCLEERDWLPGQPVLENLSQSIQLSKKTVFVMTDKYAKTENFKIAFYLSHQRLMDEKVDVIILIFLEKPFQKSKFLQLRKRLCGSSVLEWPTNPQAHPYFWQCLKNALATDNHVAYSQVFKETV
In words: HEK293-Blue-hTLR-7 cells assay. The format is cell-based. As to conditions: HEK293-Blue-hTLR7 cells, R848 stimulation, 20 hrs; read-out: HEK/hTLR7 IC50. The text has this:
A stable HEK293-Blue-hTLR-7 cell line was purchased from InvivoGen (Cat. #: hkb-htlr7, San Diego, California, USA). These cells were originally designed for studying the stimulation of human TLR7 by monitoring the activation of NF-κB. A SEAP (secreted embryonic alkaline phosphatase) reporter gene was placed under the control of the IFN-β minimal promoter fused to five NF-κB and AP-1-binding sites. The SEAP was induced by activating NF-κB and AP-1 via stimulating HEK-Blue hTLR7 cells with TLR7 ligands. Therefore the reporter expression was declined by TLR7 antagonist under the stimulation of a ligand, such as R848 (Resiquimod), for incubation of 20 hrs. The cell culture supernatant SEAP reporter activity was determined using QUANTI-Blue™ kit (Cat. #: rep-qbl, Invivogen, San Diego, Ca, USA) at a wavelength of 640 nm, a detection medium that turns purple or blue in the presence of alkaline phosphatase.
HEK293-Blue-hTLR7 cells were incubated at a density of 250,000-450,000 cells/mL in a volume of 170 μL in a 96-well plate in Dulbecco's Modified Eagle's medium (DMEM) containing 4.5 g/L glucose, 50 U/mL penicillin, […] streptomycin, […] Normocin, […] L-glutamine, 10% […] heat-inactivated fetal bovine serum with addition of 20 μL test compound in a serial dilution in the presence of final DMSO at 1% and 10 μL of 20 μM R848 in above DMEM, perform incubation under 37° C. in a CO2 incubator for 20 hrs. Then 20 μL of the supernatant from each well was incubated with 180 μL Quanti-blue substrate solution at 37° C. for 2 hrs and the absorbance was read at […] using a spectrophotometer. The signaling pathway that TLR7 activation leads to downstream NF-κB activation has been widely accepted, and therefore similar reporter assay was modified for evaluating TLR7 antagonist.

With `Cc1cc(N2CC[C@@H](c3ncc(N4CCOC[C@@H](N)C4)cc3C)[C@H](C)C2)c2cnn(C)c2n1` [Example 28, (6S)-4-[6-[(3S,4R)-1-(1,6-dimethylpyrazolo[3,4-b]pyridin-4-yl)-3-methyl-4-piperidyl]-5-methyl-3-pyridyl]-1,4-oxazepan-6-amine], the IC50 is 7 nM. Next, `COC[C@H]1CN(c2cnc([C@@H]3CCN(c4cc(C)nc5c4cnn5C)C[C@H]3C)c(C)c2)CCN1` [Example 29, 4-[(3S,4R)-4-[5-[(3R)-3-(methoxymethyl)piperazin-1-yl]-3-methyl-2-pyridyl]-3-methyl-1-piperidyl]-1,6-dimethyl-pyrazolo[3,4-b]pyridine]: 5 nM; `Cc1cc(N2CC[C@@H](c3ncc(N4CC[C@@H](N)[C@H](F)C4)cc3C)[C@H](C)C2)c2cnn(C)c2n1` [Example 31, (3R,4R)-1-[6-[(3S,4R)-1-(1,6-dimethylpyrazolo[3,4-b]pyridin-4-yl)-3-methyl-4-piperidyl]-5-methyl-3-pyridyl]-3-fluoro-piperidin-4-amine]: 5 nM.

With `Cc1cc(N2CC[C@@H](c3ncc(N4CC(C)(N)C4)cc3C)[C@H](C)C2)c2cnn(C)c2n1` [Example 32, 1-[6-[(3S,4R)-1-(1,6-dimethylpyrazolo[3,4-b]pyridin-4-yl)-3-methyl-4-piperidyl]-5-methyl-3-pyridyl]-3-methyl-azetidin-3-amine], the IC50 was found to be 8 nM. Consider `Cc1cc(N2CC[C@@H](c3ncc(N4C[C@H]5NCCO[C@@H]5C4)cc3C)[C@H](C)C2)c2cnn(C)c2n1` [Example 33, (4aR,7aR)-6-[6-[(3S,4R)-1-(1,6-dimethylpyrazolo[3,4-b]pyridin-4-yl)-3-methyl-4-piperidyl]-5-methyl-3-pyridyl]-3,4,4a,5,7,7a-hexahydro-2H-pyrrolo[3,4-b][1,4]oxazine], for which the IC50 turned out to be 11 nM. `Cc1cc(N2CC[C@@H](c3ccc(N4CCNCC4)cn3)[C@H](C)C2)c2cnn(C)c2n1` [Example 34, 1,6-dimethyl-4-[(3S,4R)-3-methyl-4-(5-piperazin-1-yl-2-pyridyl)-1-piperidyl]pyrazolo[3,4-b]pyridine]: the IC50 amounted to 82 nM. Consider `Cc1cc(N2CC[C@H](c3ccc(N4CCNCC4)cn3)[C@@H](C)C2)c2cnn(C)c2n1` [Example 35, 1,6-dimethyl-4-[(3R,4S)-3-methyl-4-(5-piperazin-1-yl-2-pyridyl)-1-piperidyl]pyrazolo[3,4-b]pyridine], for which the IC50 was found to be 6 nM. Turning to `CO[C@@H]1CN(c2ccc([C@H]3CCN(c4cc(C)nc5c4cnn5C)C[C@@H]3C)nc2)C[C@H]1N` [Example 36, (3R,4R)-1-[6-[(3R,4S)-1-(1,6-dimethylpyrazolo[3,4-b]pyridin-4-yl)-3-methyl-4-piperidyl]-3-pyridyl]-4-methoxy-pyrrolidin-3-amine], the IC50 turned out to be 18 nM. As to `COC[C@H]1CN(c2ccc([C@H]3CCN(c4cc(C)nc5c4cnn5C)C[C@@H]3C)nc2)CCN1` [Example 37, 4-[(3R,4S)-4-[5-[(3R)-3-(methoxymethyl)piperazin-1-yl]-2-pyridyl]-3-methyl-1-piperidyl]-1,6-dimethyl-pyrazolo[3,4-b]pyridine], the IC50 was determined as 9 nM. With `Cc1cc(N2CC[C@H](c3ccc(N4CC5(CNCCO5)C4)cn3)[C@@H](C)C2)c2cnn(C)c2n1` [Example 38, 2-[6-[(3R,4S)-1-(1,6-dimethylpyrazolo[3,4-b]pyridin-4-yl)-3-methyl-4-piperidyl]-3-pyridyl]-5-oxa-2,8-diazaspiro[3.5]nonane], the IC50 was 13 nM. As to `CO[C@H]1CN(c2ccc([C@H]3CCN(c4cc(C)nc5c4cnn5C)C[C@@H]3C)nc2)CC[C@@H]1N` [Example 39, (3S,4S)-1-[6-[(3R,4S)-1-(1,6-dimethylpyrazolo[3,4-b]pyridin-4-yl)-3-methyl-4-piperidyl]-3-pyridyl]-3-methoxy-piperidin-4-amine], the IC50 is 12 nM.
